Laboratory results as given in ChEMBL document CHEMBL5393450, “Compounds inhibiting tdg activity” (2022).

Target: G/T mismatch-specific thymine DNA glycosylase (Homo sapiens) (UniProt Q13569)
Assay: Inhibition of TDG in human HEK293T at 10 uM by Renilla luciferase based reporter assay relative to control
Type: cell-based

Sequence of G/T mismatch-specific thymine DNA glycosylase (Homo sapiens) (Q13569 whole entry): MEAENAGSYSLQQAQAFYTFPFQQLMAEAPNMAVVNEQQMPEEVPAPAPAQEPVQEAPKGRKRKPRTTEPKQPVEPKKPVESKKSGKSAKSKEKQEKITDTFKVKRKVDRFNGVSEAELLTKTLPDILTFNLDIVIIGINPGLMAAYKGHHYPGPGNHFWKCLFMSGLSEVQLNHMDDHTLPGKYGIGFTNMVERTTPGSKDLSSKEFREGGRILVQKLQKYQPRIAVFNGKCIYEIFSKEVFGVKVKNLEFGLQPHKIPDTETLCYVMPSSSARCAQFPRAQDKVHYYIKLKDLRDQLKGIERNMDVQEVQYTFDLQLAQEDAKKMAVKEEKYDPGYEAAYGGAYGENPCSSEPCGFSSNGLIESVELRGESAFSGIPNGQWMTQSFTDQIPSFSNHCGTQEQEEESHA

## Cc1ccc(C2CCN(CCC(=O)c3ccc4c(c3)OCCO4)C2)cc1 (stereo unspecified)
  inhibition: < 25%
